Assay results reported in patent publication US6218393A, “Anthranilic acid derivatives as multi drug resistance modulators” (priority 1997, dated 2001).

Legend:
AR 1.0 cells [1] = assay: Drug accumulation assay: daunorubicin accumulation in AR 1.0 cells; type: cell-based; conditions: Mus musculus, 100% = accumulation with verapamil 100 μM, 1 hr, 37° C.
In short: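 Daunorubicin accumulation was measured in cells plated 48 h beforehand. These were AR 1.0 cells, an MDR-resistant derivative of mouse EMT6 mammary carcinoma, cultured at 37 °C in 5% CO2 in RPMI 1640 plus 10% foetal calf serum and 2 mM glutamine.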

AR 1.0 cells [2] = assay: Potentiation of doxorubicin toxicity: proliferation assay (sulphorhodamine B); type: cell-based, mouse; conditions: Mus musculus, 96 h; compound alone; four day proliferation; read-out: Compound Toxicity (IC50)
Description: (a) Selected compounds of formula (I) were examined for their ability to potentiate the toxicity of doxorubicin in AR 1.0 cells.

AR 1.0 cells [3] = assay: Potentiation index with doxorubicin titration; type: cell-based, mouse; conditions: for Potentiation Index at RMA concentration 10 nM: Table C2, RMA 10 nM; for Potentiation Index at RMA concentration 30 nM: Table C2, RMA 30 nM
In short: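 Doxorubicin IC50 in AR 1.0 cells (MDR subline of EMT6 mouse mammary carcinoma) determined by sulphorhodamine B after 4-day culture across 0.263 nM-17.24 μM, with and without a fixed dose of test compound; their ratio gives the PI.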

Row | SMILES | IC50 (AR 1.0 cells [1]) [nM] | IC50 (AR 1.0 cells [2]) [nM] | Potentiation Index at RMA concentration 10 nM (AR 1.0 cells [3]) | Potentiation Index at RMA concentration 30 nM (AR 1.0 cells [3])
1 | COc1cc2c(cc1OC)CN(CCc1ccc(NC(=O)c3ccc([N+](=O)[O-])cc3NC(=O)c3cnc4ccccc4c3)cc1)CC2 [compound 9581, Quinoline-3-carboxylic acid (2-{4-[2-(6,7-dimethoxy-3,4-dihydro-1H-isoquinolin-2-yl)-ethyl]-phenylcarbamoyl}-5-nitro-phenyl)-amide] | 15 | 310 | 90 | 300
2 | COc1cc2c(cc1OC)CN(CCc1ccc(NC(=O)c3cc(C)ccc3NC(=O)c3cnc4ccccc4c3)cc1)CC2 [compound 9584, Quinoline-3-carboxylic acid (2,-{4-[2-(6,7-dimethoxy-3,4-dihydro-1H-isoquinolin-2-yl)-ethyl]-phenylcarbamoyl}-4-methyl-phenyl)-amide] | 360 | 8600 | 2.1 | 36
3 | COc1cc2c(cc1OC)CN(Cc1ccc(NC(=O)c3ccccc3NC(=O)c3cnc4ccccc4c3)cc1)CC2 [compound 9585, Quinoline-3-carboxylic acid {2-[4-(6,7-dimethoxy-3,4-dihydro-1H-isoquinolin-2-ylmethyl)-phenylcarbamoyl]-phenyl}-amide] | 40 | 9200 | 1.3 | 7.2
4 | COc1cc2c(cc1OC)CN(CCc1ccc(NC(=O)c3ccc(Cl)cc3NC(=O)c3cnc4ccccc4c3)cc1)CC2 [compound 9586, Quinoline-3-carboxylic acid (2-{4-[2-(6,7-dimethoxy-3,4-dihydro-1H-isoquinolin-2-yl)-ethyl]-phenylcarbamoyl}-5-chloro-phenyl)-amide] | 180 | 7400 | 5 | 6
5 | COc1cc2c(cc1OC)CN(CCc1ccc(NC(=O)c3ccc(C)cc3NC(=O)c3cnc4ccccc4c3)cc1)CC2 [compound 9588, Quinoline-3-carboxylic acid (2-{4-[2-(6,7-dimethoxy-3,4-dihydro-1H-isoquinolin-2-yl)-ethyl]-phenylcarbamoyl}-5-methyl-phenyl)-amide] | 94 | 6700 | 6 | 68
6 | COc1cc2c(cc1OC)CN(CCc1ccc(NC(=O)c3ccc(N)cc3NC(=O)c3cnc4ccccc4c3)cc1)CC2 [compound 9589, Quinoline-3-carboxylic acid (2-{4-[2-(6,7-dimethoxy-3,4-dihydro-1H-isoquinolin-2-yl)-ethyl]-phenylcarbamoyl}-5-amino-phenyl)-amide] | 1000 | 36800 | 1 | 1
7 | COc1cc2c(cc1OC)CN(CCc1ccc(NC(=O)c3ccccc3NC(=O)c3cnc4c(c3)CCCC4)cc1)CC2 [compound 9590, 5,6,7,8-Tetrahydroquinoline-3-carboxylic acid (2-{4-[2-(6,7-dimethoxy-3,4-dihydro-1H-isoquinolin-2-yl)-ethyl]-phenylcarbamoyl}-phenyl)-amide] | 97 | 9500 | 2 | 14
8 | COc1cc2c(cc1OC)CN(CCc1ccc(NC(=O)c3cc(Cl)ccc3NC(=O)c3cnc4ccccc4c3)cc1)CC2 [compound 9593, Quinoline-3-carboxylic acid (2-{4-[2-(6,7-dimethoxy-3,4-dihydro-1H-isoquinolin-2-yl)-ethyl]-phenylcarbamoyl}-4-chloro-phenyl)-amide] | 14 | 7000 | 6 | 57
